In patent US11016100B2, “Methods for identifying modulators of ion channels” (X-Body, Inc., priority 2007, dated 2021):

Test system: parental CHO cells
Conditions: parental CHO cells lacking hERG ion channels; potassium-free starvation buffer; FIG. 3
Method: This protocol employs potassium free starvation buffer to depolarize cells and thereby open ion channels such that screening ion channel modulators is possible. Colorimetric resonant reflectance biosensor plates were washed with 1×PBS for hydration baseline for 3 to 5 minutes. A PWV was determined for each of the wells. […] The plates were coated with 25.0 μl/well of fibronectin for 2 hrs at room temperature. The plates were blocked for 1 hour at room temperature or overnight at 4° C. by addition of 25.0 μl ovalbumin or BSA in PBS to the wells previously coated with fibronectin.
Starvation buffers were prepared with and without potassium. For 500.0 ml potassium-free starvation buffer the following reagents were used: 25 ml of 3M NaCl for 150 mM NaCl final; 10.0 ml for 20 mM HEPES; 1.0 ml for 2 mM calcium chloride; 0.5 ml for 2 mM magnesium chloride; 1.0 ml for 5 mM D-(+)-glucose; up to 500.0 ml with H2O HPLC. Potassium starvation buffer is prepared the same as above, but with 2 mM KCl added. […]
20.0 μl of potassium-containing starvation buffer was added to each well. […] The average number of cells/well was determined. […]
PWVs are taken for the biosensor plates for 3 to 5 minutes or until a stable read of less than 1-2 pm change/minute is attained. […]

## COc1cc(N)c(Cl)cc1C(=O)NC1CCN(CCCOc2ccc(F)cc2)CC1OC (stereo not shown) [Cisapride monohydrate]
  effect of the inhibitors on cell swelling in parental CHO cells (PWV): little to no effect
